Assay results from US20230097253A1, “NOVEL QUINAZOLINE COMPOUND AS THERAPEUTIC AGENT FOR METABOLIC DISORDERS” (BIOWAY., INC, priority 2020, published 2023).

Assays:
DIAMOND™ mouse model = experiment: In-vivo activity in DIAMOND mouse model: body weight, liver weight, liver function enzymes; details: DIAMOND mice, 16 mg/kg oral once daily for 8 weeks
Protocol: The DIAMOND™ mouse model, an animal model prepared using a Western diet and sugar water, was used. The DIAMOND™ mice were induced with WDSW for 14 weeks, and 12 mice were used for the control group and 12 mice for the BW-3290 treatment group, and BW-3290 was orally administered at 16 mg/kg once daily for 8 weeks. An autopsy was performed at week 22, and blood collection and tissue storage were performed for the individuals in each group.

3T3-L1 cells = experiment: Inhibition of fat globule formation in adipocytes by Oil-Red-O staining; assay type: cell-based, mouse; details: 3T3-L1 adipocytes, 0.5, 2.5, 10 and 20 μM
Protocol: In order to confirm the effect of the compound on reducing fat accumulation on adipocytes, 3TL-L1 mouse fat progenitor cells (American Type Culture Collection) were cultured in an incubator set at 37° C. with 95% humidity and 5% CO2.
Additionally, after sufficiently proliferating 3T3-L1 mouse adipocytes using a proliferation medium (Dulbecco's modified Eagle's medium (DMEM) supplemented with 10% bovine serum (BS), 100 U/mL of penicillin, and 100 μg/mL of streptomycin), the cells were treated with a differentiation medium (DMEM containing 10% FBS, 0.5 mM 3-isobutyl-1-methylxanthine, 1 […], and 5 μg/mL insulin) for 2 days.
Thereafter, the cells were treated with an induction medium (DMEM containing 10% FBS and 5 μg/mL insulin) for 2 days, the maintenance medium (DMEM containing 10% FBS) was replaced daily to maintain the differentiated adipocytes until the end of the experiment.
According to an embodiment of the present invention, in order to confirm the ability of the compound of Formula 2 to inhibit fat globule formation, the 3T3-L1 cells (which are fat progenitor cells) were induced to be differentiated into adipocytes, and then stained through Oil-Red-O staining. […]

[1] = test system: Huh7 cells induced with inflammatory response; experiment: Gene expression in liver cells induced with inflammatory response (qRT-PCR); assay type: cell-based; details: Huh7 cells pretreated with IL-1β; 0.5, 2.5, 10 μM; FIG. 11, FIG. 12
Protocol: After culturing the Huh-7 cells to grow to a confluency of 80-90% in a 6 well plate, except for the control, the cells were pretreated with IL-1β and then treated with BW-3290, which is the compound of the present invention, diluted in the culture medium to concentrations of 0.5 μM, 2.5 μM, and 10 μM, so as to induce an inflammatory response.
Additionally, the total RNA was extracted using the RNeasy RNA isolation kit (Qiagen, Hilden, Germany).
Additionally, 10 μL of […] per mL of a cell lysis solution was additionally prepared.
Additionally, the cells were washed twice with cold PBS and 350 μL of RNA lysis buffer was added thereto.
Additionally, 70% EtOH was added to the lysate in an equal volume, mixed by pipetting, transferred to a spin column, and centrifuged at 8,000×g for 15 seconds.
Additionally, the flow-through solution was removed and 700 μL of a wash solution was added to the spin column, centrifuged at 8,000×g, and the flow-through solution was removed.
Additionally, 500 μL of the wash buffer containing EtOH was added to the spin column and centrifuged at 8,000×g for 2 minutes (repeated 2 times)
Additionally, the flow-through solution was discarded and centrifuged once more to completely dry the spin column membrane.
Additionally, the spin column was placed into a new Eppendorf tube and 50 μL of RNase-free water was added directly to the spin column membrane and centrifuged at 8,000×g for 1 minute to dissolve and isolate the RNA.
Additionally, RNA concentration was measured at OD 260 nm using the Nanophotometer N60 (Implen, Munich, Germany)
Additionally, 1 μg of total RNA was reverse transcribed in the first strand synthesis buffer containing oligo (dT) primer (6 μg/mL), random primer (3 μg/mL), 50 U of reverse transcriptase, 4 mM dNTP, […], 5 mM magnesium chloride (MgCl2), and 40 U of RNase inhibitor.
Additionally, cDNA was synthesized using a polymerase chain reaction (PCR) device which was set to undergo denaturation at 95° C. for 5 minutes, cDNA synthesis at 42° C. for 50 minutes, and denaturation at 95° C. for 5 minutes. […]

[2] = week 22, compared to control group (VC), FIG. 17
[3] = vs control group (VC), statistical significance

CC(C)C(Nc1ncnc2nc[nH]c12)c1nc2cccc(Cl)c2c(=O)n1-c1ccccc1 (centres unmarked) [BW-3290, 2-(1-((7H-purin-6-yl)amino)-2-methylpropyl)-5-chloro-3-phenylquinazolin-4(3H)-one]
liver/body weight ratio (DIAMOND™ mouse model; week 22): improve
body weight (DIAMOND™ mouse model; [2]): decreased
liver weight (DIAMOND™ mouse model; [2]): decreased
alkaline phosphatase (ALP) level (DIAMOND™ mouse model; vs control group (VC)): decreased
alanine aminotransferase (ALT) level (DIAMOND™ mouse model; [3]): decreased
aspartate aminotransferase (AST) level (DIAMOND™ mouse model; [3]): decreased
fat globule staining (Oil-Red-O) compared to differentiation (3T3-L1 cells; concentration-dependent, FIG. 5): lower level of fat globule staining compared to differentiation
amount of stained fat globules (3T3-L1 cells; FIG. 6): appeared less in a drug concentration-dependent manner
gene expression level of IL-6 [1]: decreased in a concentration-dependent manner
gene expression level of IL-8 [1]: decreased in a concentration-dependent manner
gene expression level of TNF-α [1]: decreased in a concentration-dependent manner
